# Reference: US8501796B2, “Ester pro-drugs of [3-(1-(1H-imidazol-4-yl)ethyl)-2-methylphenyl] methanol for lowering intraocular pressure” (Allergan, Inc., priority 2010, dated 2013)
# Legend:
# [1] = system: monkeys; assay: Intraocular pressure-lowering effect in monkeys compared to placebo; type: in vivo; conditions: monkeys treated with composition containing the compound
# [2] = system: Normotensive male Dutch-Belted rabbits; assay: IOP lowering in normotensive rabbits after a topical eye drop; type: in vivo; conditions: rabbit, single 50 μl topical drop yielding 0.15% or 0.3% of active metabolite, 1% polysorbate 80 pH 5.5; IOP measured 0-8 hours; FIG. 1
# Protocol: The experimental animals used, were Normotensive male Dutch-Belted rabbits (Myrtle's Rabbitry) over 6 months in age (n=4/compound/dose screened). A single drop (50 μl) of the drug formulation, which yields 0.15% or 0.3% of the active metabolite when completely hydrolyzed in 1% polysorbate 80 at pH 5.5, was administered topically by pipette onto the right eye (treated eye) at approximately 0700 hours. IOP of the rabbits (treated and untreated eyes) was measured 0 hours before and at 0.5, 1, 2, 3, 4, 6 and 8 hours after topical eyedrop administration. IOP at the time of eye drop administration (0 hours) was used as a baseline value. Prior to the tonometric measurements, 0.05% proparacaine (50 μl) was administered to each eye. Tonometric IOP measurements were obtained with a Mentor Pneumontonmeter. Additionally, all studies were masked. At least 1 week of wash-out time was allowed for each rabbit between dosings. All animals were examined for sedation, ocular irritation, and changes in pupil diameter throughout the course of the experiments.
compound,measurement,setting,value
"Cc1c(COC(=O)C(C)C)cccc1[C@H](C)c1c[nH]cn1 [Compound 1, iso-Butyric acid 3-[(S)-1-(1H-imidazol-4-yl)-ethyl]-2-methyl-benzyl ester]",time for which the decrease in intraocular pressure is maintained,[1],up to 24 hours
same,IOP lowering capacity (efficacy) compared to Alphagan P,[2],equal or comparable efficacy to Alphagan P®
same,intraocular pressure duration compared to Alphagan P,[2],longer intraocular pressure duration than Alphagan P®
